# Measurements reported in patent US9387199B2, “Compositions and methods for treating clostridium infection and preventing recurrence of infection” (priority 2013, dated 2016).
# Key:
# C. difficile = settings: with drug use; cited from earlier work
# C. difficile VPI 10463 [1] = test: Murine model of C. difficile infection and treatment (clinical score, survival, relapse), Example 1; settings: for deaths prevented during the acute infection period: untreated infected survival 38%
# C. difficile VPI 10463 [2] = test: Histopathology scoring of cecal and colonic tissues in the murine CDI model; assay type: in vivo, C57BL/6 mice
# C. difficile VPI 10463 [3] = test: Cecal clostridial (tcdB qPCR) and toxin (TcdA/TcdB ELISA) burden in the murine CDI model; assay type: in vivo, C57BL/6 mice
# Method: Food and water were allowed ad libitum. […] Stool specimens were collected daily.
# Genomic DNA was extracted from the stool or cecal samples using a modified protocol for the QIAamp DNA stool minikits (Qiagen). Stool lysis buffer (400 μl) was added to a frozen stool sample-diluent (from enzyme-linked immunosorbent assay [ELISA]) mixture. Samples were then vortexed for 15 s and incubated at 82.5° C. for 5 min. The samples were vortexed for another 15 s and then centrifuged at 14,000 rpm for 2 min. The supernatant was added to a clean 1.5-ml microcentrifuge tube. Thirty microliters of proteinase K was added to the wall of each tube, followed by 400 μl of lysis buffer. Samples were vortexed for 15 s and then incubated at 70° C. for 10 min. After incubation, 400 μl of 100% ethanol was added to each sample and then mixed by vortexing. A total of 650 μl of the sample was then added to a spin column provided in the kit and centrifuged at 14,000 rpm for 1 min. The remaining volume of each sample was then added to the spin column and centrifuged under the same conditions. The samples were washed first with 500 μl of AW1 buffer and centrifuged at 14,000 rpm for 1 min and then with 500 μl of AW2 buffer and centrifuged at 14,000 rpm for 3 min. The DNA was eluted by adding 200 μl of elution buffer to the spin column and then centrifuging at 14,000 rpm for 1 min.
# IgG = system: IgG; parameters: species or system mice; settings: mouse, in vivo
# [4] = uninfected mice, 5-day course of drug alone
# C. difficile NAP1/BI/027 = settings: infections due to NAP1/BI/027, treated subjects; cited from earlier work
# [5] = second week postinoculation, infected control 2.7±0.9, uninfected 1.6±0.26
# [6] = 20 mg/kg oral gavage daily for 5 days
# [7] = first week after infection, 20 mg/kg oral gavage daily for 5 days, infected controls 5.7±0.9
structure (smiles),measurement,setting,value
Cc1ncc([N+](=O)[O-])n1CCO [metronidazole],recurrence rate,C. difficile,≤ 50%
same,infected mice that relapsed,C. difficile VPI 10463 [1]; 20 mg/kg/day for 5 days,none
same,weight loss or diarrhea while on antibiotics,"C. difficile VPI 10463 [1]; 20 mg/kg/day for 5 days, infected mice",had diarrhea and weight loss during treatment
same,mice that died of infection during treatment,"C. difficile VPI 10463 [1]; 20 mg/kg/day for 5 days, 6 mice per group",one mouse
CC(=O)Oc1ccccc1C(=O)Nc1ncc([N+](=O)[O-])s1 [nitazoxanide],histopathology score,"C. difficile VPI 10463 [2]; first week postinoculation, 20 mg/kg daily, untreated infected 12.5±0.7, max score 15",11.53±0.9
same,histopathology score,C. difficile VPI 10463 [2]; [5],4.2±0.6
same,deaths prevented during the acute infection period,C. difficile VPI 10463 [1]; [6],60%
same,mean clinical score,C. difficile VPI 10463 [1]; [7],5±1
same,additional deaths in post-acute infection period,"C. difficile VPI 10463 [1]; second week postinfection, 20 mg/kg daily for 5 days",no additional deaths were noted
CNC(CC(C)C)C(=O)NC1C(=O)NC(CC(N)=O)C(=O)NC2C(=O)NC3C(=O)NC(C(=O)NC(C(=O)O)c4cc(O)cc(O)c4-c4cc3ccc4O)C(O)c3ccc(c(Cl)c3)Oc3cc2cc(c3OC2OC(CO)C(O)C(O)C2OC2CC(C)(N)C(O)C(C)O2)Oc2ccc(cc2Cl)C1O (stereo not drawn) [vancomycin],histopathology score,"C. difficile VPI 10463 [2]; at the peak of infection (day 3), uninfected control 2.2±1",4.5±1.6
same,histopathology score,C. difficile VPI 10463 [2]; [5],9.3±0.9
same,C. difficile DNA (tcdB) and toxin levels in cecal specimens,C. difficile VPI 10463 [3]; day 3 (peak of infection),low
same,clostridial burden in cecal specimens,"C. difficile VPI 10463 [3]; day 6 (1 day after antibiotic was discontinued), persisted on days 9 and 12",increased clostridial burden
same,"IgG levels, low dose versus high dose",IgG,higher IgG levels
same,weight loss or increase in disease score,[4],did not show weight loss or an increase in disease score
same,rate of recurrence,C. difficile NAP1/BI/027,23.6%
same,deaths prevented during the acute infection period,C. difficile VPI 10463 [1]; [6],100%
same,clinical score until recurrence of disease,"C. difficile VPI 10463 [1]; 20 mg/kg/day for 5 or 10 days, both treatment groups",< 1
same,infected mice that relapsed,C. difficile VPI 10463 [1]; 20 mg/kg/day for 5 days,67%
same,"mortality rate, 10-day versus 5-day course",C. difficile VPI 10463 [1]; 20 mg/kg/day for 10 days,higher mortality rate
same,time from end of treatment to relapse,"C. difficile VPI 10463 [1]; 20 mg/kg/day, 5-day treatment course",4 days
same,time from discontinuation to relapse,"C. difficile VPI 10463 [1]; 20 mg/kg/day, 10-day treatment course",3 days
same,weight loss and clinical outcomes by duration of treatment,"C. difficile VPI 10463 [1]; 50 mg for 1 day only, versus 2, 3, 5 days",least weight loss and best clinical outcomes
same,overall mortality rate,"C. difficile VPI 10463 [1]; 50 mg given for 5 days, infected controls 75%",100%
same,deaths,"C. difficile VPI 10463 [1]; by day 9 and onwards, after 5-day treatment at 20 mg/kg",62%
same,mean clinical score,C. difficile VPI 10463 [1]; [7],1.7±0.3
same,mean clinical score,"C. difficile VPI 10463 [1]; second week postinfection, 20 mg/kg daily for 5 days, surviving untreated infected mice 2.6",6.2±0.2
